Experimental data reported in the NIST ThermoML archive (doi:10.1016/j.fluid.2008.07.006).

Tests used:
[1] = 101.33 kPa, Liquid
[2] = cn = amount concentration of the nth substance listed, in mol/dm3; conditions: 101 kPa, Liquid, Direct current cell with electrodes
[3] = xn = mol fraction of the nth substance listed; conditions: 101 kPa, Fluid (supercritical or subcritical phases)

CCn1cc[n+](C)c1.COCCOCCOS(=O)(=O)[O-] [1-ethyl-3-methylimidazolium 2-(2-methoxyethoxy) ethylsulfate]
[1]
Conditions	mass density [kg/m3]
303.2 K	1233.4
308.2 K	1230
313.2 K	1226.6
318.2 K	1223.3
323.2 K	1219.9

CCn1cc[n+](C)c1.COCCOCCOS(=O)(=O)[O-] [1-ethyl-3-methylimidazolium 2-(2-methoxyethoxy) ethylsulfate] + O
Conditions	binary diffusion coefficient, 303.2 K [m2/s]	binary diffusion coefficient, 308.2 K [m2/s]	binary diffusion coefficient, 313.2 K [m2/s]	binary diffusion coefficient, 318.2 K [m2/s]	binary diffusion coefficient, 323.2 K [m2/s]	molar conductivity, 303.2 K [S·m2/mol]	molar conductivity, 308.2 K [S·m2/mol]	molar conductivity, 313.2 K [S·m2/mol]	molar conductivity, 318.2 K [S·m2/mol]	molar conductivity, 323.2 K [S·m2/mol]
[2], c1 = 9e-10	–	–	–	–	–	0.0074	0.0081	0.009	0.0098	0.0107
[2], c1 = 3.9e-09	–	–	–	–	–	0.0067	0.0075	0.0082	0.0091	0.0097
[2], c1 = 1.06e-08	–	–	–	–	–	0.0062	0.007	0.0077	0.0084	0.0091
[2], c1 = 1.82e-08	–	–	–	–	–	0.006	0.0067	0.0074	0.0081	0.0088
[2], c1 = 2.57e-08	–	–	–	–	–	0.0059	0.0065	0.0072	0.0076	0.0083
[3], x2 = 0	9.95e-10	1.06e-09	1.27e-09	1.32e-09	1.51e-09	–	–	–	–	–

CCn1cc[n+](C)c1.N#CN=C=[N-] [1-ethyl-3-methylimidazolium dicyanamide]
[1]
Conditions	mass density [kg/m3]
303.2 K	1105.8
308.2 K	1102.6
313.2 K	1099.4
318.2 K	1096.2
323.2 K	1093

CCn1cc[n+](C)c1.N#CN=C=[N-] [1-ethyl-3-methylimidazolium dicyanamide] + O
Conditions	binary diffusion coefficient, 303.2 K [m2/s]	binary diffusion coefficient, 308.2 K [m2/s]	binary diffusion coefficient, 313.2 K [m2/s]	binary diffusion coefficient, 318.2 K [m2/s]	binary diffusion coefficient, 323.2 K [m2/s]	molar conductivity, 303.2 K [S·m2/mol]	molar conductivity, 308.2 K [S·m2/mol]	molar conductivity, 313.2 K [S·m2/mol]	molar conductivity, 318.2 K [S·m2/mol]	molar conductivity, 323.2 K [S·m2/mol]
[2], c1 = 1.2e-09	–	–	–	–	–	0.0095	0.0103	0.011	0.0123	0.0133
[2], c1 = 6.6e-09	–	–	–	–	–	0.009	0.0098	0.0108	0.0118	0.0128
[2], c1 = 1.19e-08	–	–	–	–	–	0.0087	0.0095	0.0105	0.0113	0.0125
[2], c1 = 2.28e-08	–	–	–	–	–	0.0083	0.0092	0.01	0.0109	0.0119
[2], c1 = 4.15e-08	–	–	–	–	–	0.0079	0.0088	0.0095	0.0103	0.0114
[3], x1 = 0	1.25e-09	1.41e-09	1.54e-09	1.71e-09	1.85e-09	–	–	–	–	–

CCOS(=O)(=O)[O-].CCn1cc[n+](C)c1 [1-ethyl-3-methylimidazolium ethyl sulfate]
[1]
Conditions	mass density [kg/m3]
303.2 K	1232.7
308.2 K	1229.4
313.2 K	1226.2
318.2 K	1222.9
323.2 K	1219.7

CCOS(=O)(=O)[O-].CCn1cc[n+](C)c1 [1-ethyl-3-methylimidazolium ethyl sulfate] + O
Conditions	binary diffusion coefficient, 303.2 K [m2/s]	binary diffusion coefficient, 308.2 K [m2/s]	binary diffusion coefficient, 313.2 K [m2/s]	binary diffusion coefficient, 318.2 K [m2/s]	binary diffusion coefficient, 323.2 K [m2/s]	molar conductivity, 303.2 K [S·m2/mol]	molar conductivity, 308.2 K [S·m2/mol]	molar conductivity, 313.2 K [S·m2/mol]	molar conductivity, 318.2 K [S·m2/mol]	molar conductivity, 323.2 K [S·m2/mol]
[2], c1 = 1.6e-09	–	–	–	–	–	0.008	0.0089	0.0097	0.0106	0.0116
[2], c1 = 4.6e-09	–	–	–	–	–	0.0076	0.0084	0.0092	0.0101	0.011
[2], c1 = 8.6e-09	–	–	–	–	–	0.0074	0.0081	0.0089	0.0097	0.0106
[2], c1 = 1.72e-08	–	–	–	–	–	0.0071	0.0079	0.0086	0.0095	0.0102
[2], c1 = 3.58e-08	–	–	–	–	–	0.0065	0.0073	0.0082	0.0091	0.0098
[3], x1 = 0	1.04e-09	1.19e-09	1.4e-09	1.5e-09	1.64e-09	–	–	–	–	–

CCn1cc[n+](C)c1.F[B-](F)(F)F [1-ethyl-3-methylimidazolium tetrafluoroborate]
[1]
Conditions	mass density [kg/m3]
303.2 K	1278.7
308.2 K	1275
313.2 K	1271.4
318.2 K	1267.8
323.2 K	1264.2

CCn1cc[n+](C)c1.F[B-](F)(F)F [1-ethyl-3-methylimidazolium tetrafluoroborate] + O
Conditions	binary diffusion coefficient, 303.2 K [m2/s]	binary diffusion coefficient, 308.2 K [m2/s]	binary diffusion coefficient, 313.2 K [m2/s]	binary diffusion coefficient, 318.2 K [m2/s]	binary diffusion coefficient, 323.2 K [m2/s]	molar conductivity, 303.2 K [S·m2/mol]	molar conductivity, 308.2 K [S·m2/mol]	molar conductivity, 313.2 K [S·m2/mol]	molar conductivity, 318.2 K [S·m2/mol]	molar conductivity, 323.2 K [S·m2/mol]
[2], c1 = 1e-09	–	–	–	–	–	0.0119	0.013	0.0139	0.0149	0.0162
[2], c1 = 5.5e-09	–	–	–	–	–	0.0111	0.0121	0.0131	0.0142	0.0153
[2], c1 = 1.32e-08	–	–	–	–	–	0.0105	0.0116	0.0125	0.0136	0.0146
[2], c1 = 2.22e-08	–	–	–	–	–	0.0101	0.0111	0.012	0.013	0.014
[2], c1 = 4.15e-08	–	–	–	–	–	0.009	0.0099	0.0108	0.0117	0.0127
[3], x1 = 0	1.5e-09	1.57e-09	1.69e-09	1.88e-09	2.01e-09	–	–	–	–	–

CCn1cc[n+](C)c1.O=S(=O)([O-])C(F)(F)F [1-ethyl-3-methylimidazolium trifluoromethanesulfonate]
[1]
Conditions	mass density [kg/m3]
303.2 K	1377.3
308.2 K	1373.3
313.2 K	1369.3
318.2 K	1365.3
323.2 K	1361.2

CCn1cc[n+](C)c1.O=S(=O)([O-])C(F)(F)F [1-ethyl-3-methylimidazolium trifluoromethanesulfonate] + O
Conditions	binary diffusion coefficient, 303.2 K [m2/s]	binary diffusion coefficient, 308.2 K [m2/s]	binary diffusion coefficient, 313.2 K [m2/s]	binary diffusion coefficient, 318.2 K [m2/s]	binary diffusion coefficient, 323.2 K [m2/s]	molar conductivity, 303.2 K [S·m2/mol]	molar conductivity, 308.2 K [S·m2/mol]	molar conductivity, 313.2 K [S·m2/mol]	molar conductivity, 318.2 K [S·m2/mol]	molar conductivity, 323.2 K [S·m2/mol]
[2], c1 = 1.2e-09	–	–	–	–	–	0.0083	0.0093	0.0101	0.011	0.012
[2], c1 = 3.8e-09	–	–	–	–	–	0.0079	0.0088	0.0097	0.0106	0.0114
[2], c1 = 8.7e-09	–	–	–	–	–	0.0077	0.0085	0.0093	0.0102	0.0111
[2], c1 = 1.86e-08	–	–	–	–	–	0.0073	0.008	0.0088	0.0095	0.0103
[2], c1 = 3.19e-08	–	–	–	–	–	0.0069	0.0077	0.0084	0.0092	0.01
[3], x1 = 0	1.16e-09	1.27e-09	1.51e-09	1.66e-09	1.8e-09	–	–	–	–	–

F[B-](F)(F)F.[Li+] [lithium fluoroborate] + O
molar conductivity [S·m2/mol], [2]
Conditions	303.2 K	308.2 K	313.2 K	318.2 K	323.2 K
c1 = 3e-09	0.0117	0.0126	0.0134	0.0144	0.0158
c1 = 1.11e-08	0.0111	0.0122	0.0129	0.0139	0.0155
c1 = 2.73e-08	0.0106	0.0119	0.0125	0.0135	0.0152
c1 = 4.81e-08	0.0103	0.0115	0.0121	0.0131	0.0149
c1 = 7.55e-08	0.01	0.0112	0.0118	0.0127	0.0145
